Values joined by “and” are separate entries in the source; they are usually repeats but may differ in a detail not shown here. Equal entries are not always repeated. Where two headings read alike, the source gives them in different places.
What was measured:
[1] = tested on: transgenic P. berghei line 676m1cl1 (PbGFP-Luccon), ANKA strain; assay: In vivo efficacy in P. berghei infected mice (luciferase activity); parameters: species or system Plasmodium berghei in Swiss Webster female mice; conditions: chloroquine 20 mg/kg; for Parasitaemia (Luminescence arbitrary units), Average ± SD: 4 days from 48 h post-infection
Protocol: In vivo efficacy experiments were performed at the Anti-infectives Screening Core Services facility of the New York University School of Medicine. The transgenic P. berghei line 676m1cl1 parasite (PbGFP-Luccon) expressing the fusion GFP (mutant 3) and firefly luciferase (LucIAV) proteins generated in the reference clone of ANKA strain cl15cy1 was used. Swiss Webster female mice were infected with transgenic P. berghei line 676m1cl1 (PbGFP-Luccon) ANKA-infected 10³ red blood cells. Treatment was then started 48 h post-parasite infection by i.p. dosage of 22 mg/kg of strasseriolide D and 50 mg/kg of strasseriolide C. Vehicle only (PBS 2% methylcellulose, 0.5% Tween 80) and 20 mg/kg chloroquine were used as negative and positive controls. The infected mice were treated for four days, after which luciferase activity of the parasites was quantified 5 to 10 min after i.p. injection of 150 mg/kg D-Luciferin Potassium-salt (Goldbio) dissolved in PBS using an IVIS® Lumina II imager on the fifth day.
The Genedata Screener online application (Genedata AG, Basel, Switzerland) was used to compute IC50 values. The Smart Fit strategy with Hill model was selected as the choice for curve fitting. Where applicable, data are presented as mean ± standard deviation (SD). In Fig. 3, the significant differences between the vehicle controls and test compounds were calculated by the Student’s t test.

[2] = Quantification of compounds in mice plasma by LC-MS-MS and PK parameters after i.v. injection; type: in vivo; conditions: for Plasma Conc. @Tinitial: mice, Tinitial 0.5 h (A, C), 0.13 h (B), 1.5 h (D)
Protocol: (§1) Three Balb/C mice (6–8 weeks old) were intravenously injected with 25 mg/kg of strasseriolide D dissolved in 200 µL of vehicle (0.5%HPMC, 0.5% Tween 80 and 0.5% Benzyl alcohol in water). Blood samples were collected by pricking the […] on the leg of each mouse at time points 1.5 (T 1.5 h), 5 (T 5 h) and 24 h (T 24 h). From the harvested blood, 50 µL plasma were prepared for all the samples and stored at -80 °C until needed. A previously developed LC–MS–MS method (see supporting information) was used to determine the plasma concentration of strasseriolide D as described below.
Ten millimolar (10 mM) DMSO stocks of strasseriolide D (the test compound) and strasseriolide A (used as internal standard,) were prepared. From the strasseriolide D stock, a 59.7 µM (27,000 ppb) working concentration was made in DMSO and an aliquot of this was serially diluted (½) in reconstitution solution (1:1 of acetonitrile: H2O with 0.1% formic acid) to create a six-point calibration curve in triplicate. Three different quality control (QC) concentrations of strasseriolide D at 59.7, 0.74, and 0.25 µM (i.e. 27,000 ppb, 333 ppb and 111 ppb) were also prepared in duplicate. From the strasseriolide A (internal standard) stock, a 6.2 µM (2700 ppb) working concentration was prepared in DMSO.
Blank mouse plasma (prepared from non-injected mouse) was retrieved from the freezer (− 80 °C) and kept on ice to thaw. The sample was vortexed adequately and 15 µL aliquots transferred into 0.7 mL Eppendorf tubes after which 35 µL of Milli-Q water were added and vortexed. Triplicate sets of the diluted plasma were then respectively spiked with 2 uL of each concentration of the calibration curves of strasseriolide D. Another triplicate set of the diluted plasma was spiked with 2 µL of each concentration of the standard QC solutions. All the above samples were also spiked with 2 µL of strasseriolide A (the internal standard)). To serve as blank samples, a fresh triplicate set of diluted plasma were spiked with 4 µL of DMSO. Non-matrix samples were also prepared by spiking 100 µL aliquots of reconstitution solution with 2 µL of the standard QC solutions and 2 µL of internal standard.
Fifteen microlitres (15 µL) plasma from the various time points of the strasseriolide D-injected mice, were respectively transferred into 0.7 mL Eppendorf tubes. To each sample, 37 µL of Milli-Q water were added, vortexed and spiked with 2 µL of strasseriolide A (internal standard). Two hundred microlitres (200 µL) of ice-cold acetonitrile were added to all of the matrix (plasma-containing) samples and centrifuged at 13,300 rpm for 15 min at 4 °C. Subsequently, 180 µL aliquots were carefully transferred (without disturbing the protein precipitate) from each tube into clean HPLC vials and evaporated to dryness in an EZ2 Genevac at room temperature. The dried samples were then reconstituted in 40 µL of reconstitution solution by vortexing. The samples were placed in an auto-sampler drawer for LC–MS–MS analysis and quantification of strasseriolide D (the test compound) in mice plasma.
(§2) Similar sample preparation and LC–MS–MS analysis were respectively performed for mice intravenously injected with strasseriolides A and C as test compounds and mice blood samples collected at 30 min (T 30 M), 2 h (T 2 h), 6 h (T 6 h) and 24 h (T 24 h). […] For strasseriolides A, B and C as test compounds; strasseriolides C, D and B were respectively used as internal standards. After LC–MS–MS analysis, the plasma concentration of compound vs. time data was determined for each strasseriolide.
116 Table S2. QC table used to calculate the precision and accuracy of the method.
Compound Expected No. Experimental STD % %
conc. in values mean conc. deviation CV Accuracy
118 (5) The mean recovery rate for the test compound (strasseriolide B) – this was calculated
119 to be 29 % by comparing the plasma QC peak area ratios at the established retention time […]

[3] = tested on: Plasmodium falciparum strain 3D7 whole parasites; parameters: method as in PMID 32808790; conditions: in vitro, read-out: IC50 against Plasmodium falciparum strain 3D7; cited from earlier work
mice = assay: In vivo toxicity in mice after i.v. injection
Protocol: as §1, §2
Animals were observed individually at 15, 30 and 60 min after dosing and periodically during the first 24 h for any clinical signs of toxicity or mortality. The toxicity evaluation was carried out by observing behaviour parameters, including the Grimace scale parameters. The mice were sacrificed, and the main organs were examined by visual inspection during autopsy.

[4] = Metabolic stability assay in human liver microsomes; type: in vitro ADME; conditions: for half-life: pH 7.4, 1 mg/mL protein; for Clearance Category: ranked by CLint
Protocol: Pretreatment of the 96-well ABgen-0765 reaction plates was the same as previously described above. Two microlitres (2 µL) of compounds (previously dissolved in DMSO) were pre-incubated with 98 µL of cofactor/buffer solution (0.1 M phosphate buffer of pH 7.4, 100 mM K3PO4, 3.3 mM MgCl2, 3.3 mM G6P, 1.3 mM NADPH, and 0.4 u/mL G6PDH) at 37 °C for 10 min. The reactions were then initiated by the addition of 100 µL of HLM solution (at final protein concentration of 1 mg/mL), after which they were stopped at pre-determined incubation times of 0, 10, 15, 30, 45 and 60 min by adding 90 µL acetonitrile containing internal LC–MS–MS standards and shaking at 180 Hz. The samples were centrifuged to sediment the protein precipitates and the supernatants were analysed by LC–MS–MS as previously described above. The integration of each analyte (the […]) and internal standard peak area was performed by the Analyst® software version 1.5.2 and used to calculate the percentage of remaining compound at each incubation time. The natural logarithm of the percentage of the remaining parent compound was plotted against the incubation time and used to calculate the half-life by the following equation:
Half-life (T ½ min) = 0.693/k, where k is the slope of a plot of the natural log of the percentage parent compound remaining vs. time.
The intrinsic clearance (CLint) was determined by the equation: CLint
=Ln2/t1/2min∗volumeincubationmL/microsomalproteinmg∗45MPPGL1500ghumanliver/70kghumanbodyweightj
Units for CLint were expressed as mL/min/mg microsomal protein and MPPGL = mg microsomal protein per gram liver.

HepG2 liver cells = tested on: HepG2 liver cells; parameters: method as in PMID 32808790; conditions: cited from earlier work
[5] = Balb/C, mouse, in vivo, iv, 25 mg/kg
[6] = Balb/C, mouse, in vivo, iv, 25 mg/kg, 24 h
[7] = Balb/C, mouse, in vivo, iv, 25 mg/kg, Ave. Conc. in plasma

In the case of `CCN(CC)CCCC(C)Nc1ccnc2cc(Cl)ccc12` (stereo not drawn) [Chloroquine, chloroquine, reference compound], the “Parasitaemia (Luminescence arbitrary units), Average ± SD” value ([1]; Table S7/Fig. 3A experiment: strasseriolide C 50 mg/kg i.p., read day 5, four replicates) is reported as 0.00 Luminescence arbitrary units, the “Parasitaemia (Luminescence arbitrary units), single replicates” value ([1]; Table S7 experiment: strasseriolide C 50 mg/kg i.p., individual mice) is reported as 0.00 Luminescence arbitrary units and the “Parasitaemia (Luminescence arbitrary units), Average ± SD” value ([1]; Table S8/Fig. 3B experiment: strasseriolide D 22 mg/kg i.p., read day 5, five replicates) is reported as 3 × 10^3 Luminescence arbitrary units.

In the case of `C/C1=C\[C@H](C)CCC(=O)/C(C)=C/[C@H](C)C[C@@H](C)CC[C@@H]([C@@H](C)C(=O)O)OC(=O)[C@@H](C)C1` [Strasseriolide A, strasseriolide A], the “AUC 0-t/0-inf_obs” value [2, 5] is reported as 0.9738, the AUC(0-inf) [2, 5] is reported as 510 ng·h/mL and 1.17 µM·h and the C0 [2, 5] is reported as 378 ng/mL and 870 nM. The Clast_obs/Cmax [2, 5] was 0.009713, the Cmax [2, 5] was 216 ng/mL and 498 nM and the MRT [2, 5] was 2.98 h. For the same molecule, the MRT inf [2, 5] was 2.99 h, the Tmax [2, 5] was 0.5 h and the Vss_obs [2, 5] was 0.1465 (mg/kg)/(ng/ml). The “Vz_obs (plasma distribution volume)” value [2, 5] was 312.4 L/kg, the k el [2, 5] was 4.36e-05 s⁻¹ and the “Calc. Conc. in plasma, individual mice” value [2, 6] was < 2.1 ng/mL. For the same molecule, the “Plasma Conc. @T24 h” value [2, 6] was <4.8 nM, the concentration at 8 min ([2]; Balb/C, mouse, in vivo, iv, 25 mg/kg, 24 h, read-out: Calc. Conc. in plasma, individual mice) was < 0.00484 µM and the AUC(0-t) ([2]; Balb/C, mouse, in vivo, iv, 25 mg/kg, AUC 0-t) was 1.14 µM·h and 496 ng·h/mL. For the same molecule, the AUC(0-t) ([2]; Balb/C, mouse, in vivo, iv, 25 mg/kg, AUC0−t) was 1.14 µM·h, the concentration at 0.5 h [2, 7] was 498 nM and the concentration at 2 h [2, 7] was 93.5 nM. For the same molecule, the concentration at 6 h [2, 7] was 11.6 nM, the concentration at 24 h [2, 7] was < 4.84 nM and the concentration at 24 h ([2]; Balb/C, mouse, in vivo, iv, 25 mg/kg, Calc. Conc. in plasma, individual mice) was < 2.1 ng/mL and < 4.84 nM. For the same molecule, the concentration at 24 h ([2]; Balb/C, mouse, in vivo, iv, 25 mg/kg, Plasma Conc. @T24 h) was < 4.8 nM, the half-life ([2]; Balb/C, mouse, in vivo, iv, 25 mg/kg, T1/2 (apparent terminal elimination half-life)) was 4.4 h and the half-life ([2]; Balb/C, mouse, in vivo, iv, 25 mg/kg, t1/2) was 4.41 h. The Cl_obs ([2]; mouse, in vivo, iv, 25 mg/kg) was 0.04907 (mg/kg)/(ng/ml)/h, the IC50 [3] was 9.81 µM and the “in vivo toxicity / mortality in mice” value (mice; [6]) was “survived until 24 h post-i.v. injection”. The “in vivo toxicity / mortality in mice” value (mice; mouse, in vivo, iv, 25 mg/kg) was “non-toxic”, the half-life [4] was 6.47 ± 1.05 min and the “Clearance Category” value [4] was “High”.

In the case of `C/C1=C\[C@H](C)CC[C@@H](O)/C(C)=C/[C@H](C)C[C@@H](C)CC[C@@H]([C@@H](C)C(=O)O)OC(=O)[C@@H](C)C1` [Strasseriolide B, strasseriolide B], the concentration at 8 min ([2]; Balb/C, mouse, in vivo, iv, 25 mg/kg, i.v. 25 mg/kg, T 8 minutes, read-out: Ave. Conc. in plasma) is reported as 19.6 µM, the concentration at 8 min ([2]; Balb/C, mouse, in vivo, iv, 25 mg/kg, i.v. 25 mg/kg, T 8 minutes, read-out: Calc. Conc. in plasma, individual mice) is reported as 8110 ng/mL and 18.6 µM and the “Calc. Conc. in plasma, individual mice” value ([2]; i.v. 25 mg/kg, T 8 minutes) is reported as 9098.0 ng/mL. The “Calc. Conc. in plasma, individual mice” value ([2]; i.v. 25 mg/kg, T 8 minutes, listed as strasseriolide B) was 8419.0 ng/mL, the concentration at 8 min ([2]; i.v. 25 mg/kg, T 8 minutes, listed as strasseriolide B, read-out: Calc. Conc. in plasma, individual mice) was 19.3 µM and the concentration at 8 min ([2]; i.v. 25 mg/kg, T 8 minutes, read-out: Calc. Conc. in plasma, individual mice) was 20.9 µM. The “Plasma Conc. @Tinitial” value ([2]; i.v. 25 mg/kg) was 19600 nM, the “Plasma Conc. @Tinitial” value ([2]; i.v. 25 mg/kg, listed as B*) was 19600 ± 1200 nM and the IC50 [3] was 0.013 µM. For the same molecule, the “time to death of all injected mice” value (mice; i.v. 25 mg/kg) was “*Only Tinitial and the Plasma Conc @ Tinitial were recorded as all the mice injected with this compound died under 8 min”, the “in vivo toxicity / mortality in mice” value (mice; i.v. 25 mg/kg, three mice, observed 24 h) was “all died just under eight minutes post-i.v. injection” and the “in vivo toxicity / mortality in mice at lower dosages” value (mice; i.v. 10, 5 and 1 mg/Kg) was “all resulted in death of the mice injected”. The “in vitro toxicity against HepG2 liver cells” value (HepG2 liver cells) was “no in vitro toxicity”, the half-life [4] was 8.7 ± 2.4 min and the “Clearance Category” value [4] was “High”.

From paper PMC8647499, “Preclinical evaluation of strasseriolides A–D, potent antiplasmodial macrolides isolated from Strasseria geniculata CF-247,251” (Malaria Journal, 2021)
